Measured values from the NIST ThermoML archive (doi:10.1007/s10765-006-0110-x).
± gives the expanded uncertainty stated by the source.

Conditions: Liquid, Pulse-echo method

COCCOCCOC [2,5,8-trioxanonane]
speed of sound [m/s]
Conditions | 293.15 K | 303.15 K | 313.15 K | 323.15 K | 333.15 K | 343.15 K | 353.15 K
100 kPa | 1298.9 ± 5.3 | 1259.3 ± 5.1 | 1219.9 ± 4.9 | 1180.9 ± 4.8 | 1142.4 ± 4.6 | 1104.2 ± 4.5 | 1066.6 ± 4.3
10000 kPa | 1344.9 ± 5.4 | 1306.7 ± 5.3 | 1269.5 ± 5.1 | 1232.5 ± 5 | 1196.4 ± 4.8 | 1160.8 ± 4.7 | 1125.7 ± 4.6
20000 kPa | 1386.5 ± 5.6 | 1350.6 ± 5.5 | 1315.4 ± 5.3 | 1280.2 ± 5.2 | 1246 ± 5 | 1212 ± 4.9 | 1179.3 ± 4.8
30000 kPa | 1426.6 ± 5.8 | 1392 ± 5.6 | 1357.6 ± 5.5 | 1324.4 ± 5.4 | 1291.4 ± 5.2 | 1259.5 ± 5.1 | 1228.1 ± 5
40000 kPa | 1463.9 ± 5.9 | 1430.4 ± 5.8 | 1397.8 ± 5.7 | 1365.5 ± 5.5 | 1333.7 ± 5.4 | 1303.1 ± 5.3 | 1273.4 ± 5.2
50000 kPa | 1499.2 ± 6.1 | 1466.9 ± 5.9 | 1435.3 ± 5.8 | 1404 ± 5.7 | 1373.6 ± 5.6 | 1343.9 ± 5.4 | 1314.9 ± 5.3
60000 kPa | 1532.5 ± 6.2 | 1501.5 ± 6.1 | 1470.5 ± 5.9 | 1440.6 ± 5.8 | 1410.9 ± 5.7 | 1382.1 ± 5.6 | 1354.4 ± 5.5
70000 kPa | 1565.1 ± 6.3 | 1534.3 ± 6.2 | 1504.4 ± 6.1 | 1475.2 ± 6 | 1446.2 ± 5.8 | 1418.6 ± 5.7 | 1391.3 ± 5.6
80000 kPa | 1595.5 ± 6.4 | 1565.8 ± 6.3 | 1536.7 ± 6.2 | 1508.2 ± 6.1 | 1480.1 ± 6 | 1452.9 ± 5.9 | 1426.7 ± 5.8
90000 kPa | 1624.9 ± 6.6 | 1595.9 ± 6.4 | 1567.6 ± 6.3 | 1539.8 ± 6.2 | 1512.3 ± 6.1 | 1485.9 ± 6 | 1460.4 ± 5.9
100000 kPa | 1653.4 ± 6.7 | 1625.1 ± 6.6 | 1597 ± 6.4 | 1569.9 ± 6.3 | 1543.1 ± 6.2 | 1517.4 ± 6.1 | 1492.3 ± 6

COCCOC [1,2-dimethoxyethane]
speed of sound [m/s]
Conditions | 293.15 K | 303.15 K | 313.15 K | 323.15 K | 333.15 K | 343.15 K | 353.15 K
100 kPa | 1188.5 ± 4.8 | 1144.8 ± 4.6 | 1101.9 ± 4.4 | 1059.4 ± 4.3 | 1016.5 ± 4.1 | 974.9 ± 3.9 | 932.8 ± 3.8
10000 kPa | 1242 ± 5 | 1201.1 ± 4.8 | 1161.1 ± 4.7 | 1122.4 ± 4.5 | 1083.1 ± 4.4 | 1044.7 ± 4.2 | 1005.8 ± 4.1
20000 kPa | 1292.4 ± 5.2 | 1252.2 ± 5 | 1215.2 ± 4.9 | 1178.7 ± 4.8 | 1142.7 ± 4.6 | 1107 ± 4.5 | 1070 ± 4.3
30000 kPa | 1336.4 ± 5.4 | 1299.6 ± 5.2 | 1263.9 ± 5.1 | 1229.3 ± 5 | 1195.2 ± 4.8 | 1161.4 ± 4.7 | 1127.3 ± 4.5
40000 kPa | 1378.8 ± 5.6 | 1343.2 ± 5.4 | 1309.2 ± 5.3 | 1275.9 ± 5.1 | 1243.6 ± 5 | 1211.6 ± 4.9 | 1178.9 ± 4.8
50000 kPa | 1418.2 ± 5.7 | 1384.1 ± 5.6 | 1350.7 ± 5.4 | 1319.6 ± 5.3 | 1288.4 ± 5.2 | 1257.6 ± 5.1 | 1226.3 ± 4.9
60000 kPa | 1455.6 ± 5.9 | 1422.5 ± 5.7 | 1390.5 ± 5.6 | 1361.5 ± 5.5 | 1330.1 ± 5.4 | 1300.5 ± 5.2 | 1270.4 ± 5.1
70000 kPa | 1490.4 ± 6 | 1458 ± 5.9 | 1428.3 ± 5.8 | 1398.6 ± 5.6 | 1369.3 ± 5.5 | 1340.5 ± 5.4 | 1311.3 ± 5.3
80000 kPa | 1523.9 ± 6.1 | 1492.6 ± 6 | 1463.3 ± 5.9 | 1434.7 ± 5.8 | 1406.4 ± 5.7 | 1378.6 ± 5.6 | 1350.2 ± 5.4
90000 kPa | 1555.7 ± 6.3 | 1525.7 ± 6.1 | 1497 ± 6 | 1468.9 ± 5.9 | 1441.3 ± 5.8 | 1414.5 ± 5.7 | 1387 ± 5.6
100000 kPa | 1586.1 ± 6.4 | 1557.2 ± 6.3 | 1528.8 ± 6.2 | 1501.5 ± 6 | 1474.8 ± 5.9 | 1448.7 ± 5.8 | 1421.7 ± 5.7
